Series [1] is described as follows: Hygroscopicity test method (DVS). The note with it: for Desorption / Sorption / Hysteresis: onset temperature 24.9°C, first cycle. Details: Sorption / Desorption / Hysteresis: unit not given here. The series is classed as physicochemical. On the procedure:
Hygroscopicity test method (DVS): The hygroscopicity of the sample was measured using SMS Intrinsic Plus. The sample was weighed into a sample pan, equilibrated at 25°C until dm/dt was less than 0.002%, and then measured in time mode. The humidity was adjusted from 60%-90%-0%-90%-0% RH, with increments of 10% RH per step, and each humidity level was maintained for 1 hour.

Series [2] can be described thus: Pharmacokinetic evaluation in rats. The series is classed as in vivo. The note with it: in vivo; Rat PK, oral (PO), 10 mg/kg. The protocol:
Rats were used as test animals, and the plasma drug concentrations at different time points after gavage administration of the test sample were measured. The pharmacokinetic behavior of the compound of the present disclosure in rats was studied to evaluate its metabolic characteristics. For each experimental group, 3 rats with similar body weights were selected and orally administered a single dose of 10 mg/kg. […] Pharmacokinetic parameter calculations were performed using metabolic kinetic data analysis software WinNonlin 7.0 by non-compartmental analysis (NCA) based on plasma concentration data.
A test sample with a final preparation concentration (based on the content of the compound of formula I) of 1.0 mg/mL was prepared for oral administration, using a 0.5% CMC Na aqueous solution as the preparation solvent.
Administration: After overnight fasting (12 hours), rats were administered by gavage at a dose of 10 mg/kg.
The blood samples were placed in heparinized sample tubes, and centrifuged at 4°C and 3500 rpm for 10 minutes to separate plasma, which was then stored at -20°C. Food was provided 2 hours after administration.
Determination of the content of the compound to be tested in rat plasma after gavage administration: After thawing plasma samples at room temperature, 300 µL of internal standard (terfenadine 200 ng/mL, acetonitrile) was added to each sample. The mixtures were vortexed for 1 min and then centrifuged at 4°C and 15400 rpm for 10 min. The supernatant was diluted 20-fold with 80% acetonitrile-water and then injected for LC/MS/MS analysis.

Series [3] is described as follows: Purity test after storage in an oven at set temperature (stability). The note with it: HPLC; for Purity, Onset: Onset (before storage); for Purity, 80°C (1 day): oven. The format is physicochemical. The protocol: Purity test: The sample to be tested was dissolved in a methanol solution, and the sample purity was measured by HPLC.
Series [4] is described as follows: Compressibility test (tableting, XRPD detection). The format is physicochemical. The note with it: compressed into tablets.
Series [5] can be described thus: Grindability test (mortar, XRPD detection). The format is physicochemical. The note with it: for Grindability (mortar 5 min), solid form: XRPD. On the procedure:
Grindability test: An appropriate amount of the crystal compound to be tested was placed in a mortar and ground for 2 min and 5 min, followed by XRPD detection.

Series [6] is described as follows: Tableting and grinding test (XRPD, FIG. 21 to 25). The format is physicochemical. The note with it: after tableting, after grinding for 5 minutes and for 2 minutes; FIG. 21 to 23. The protocol: Grindability test: An appropriate amount of the crystal compound to be tested was placed in a mortar and ground for 2 min and 5 min, followed by XRPD detection. […]
The nature of series [7]: Purity test after storage in an oven at set temperature (stability). The format is physicochemical. The note with it: 80°C, 1 day.

Structures can show the parent of a compound that is named as a salt.

`O=C([O-])c1ccc2nc(CN3CCC(c4ccccc4OCc4ccc(Cl)cc4F)CC3)n(C[C@@H]3CCO3)c2c1.[Na+]` [Sodium salt of the compound of formula I, Sodium salt of (S)-2-((4-(2-((4-chloro-2-fluorobenzyl)oxy)phenyl)piperidin-1-yl)methyl)-1-(oxetan-2-aminomethyl)-1H-benzo[d]imidazole-6-carboxylate]: the “Hygroscopicity (80% RH), description in words” value in series [1] (80% RH, 25°C, DVS) is “Highly hygroscopic, deliquescent”.

Turning to `O=C(O)c1ccc2nc(CN3CCC(c4ccccc4OCc4ccc(Cl)cc4F)CC3)n(C[C@@H]3CCO3)c2c1` [Crystal form A of the monohydrate of the 2-amino-2-(hydroxymethyl)-1,3-propanediol salt of (S)-2-((4-(2-((4-chloro-2-fluorobenzyl)oxy)phenyl)piperidin-1-yl)methyl)-1-(oxetan-2-aminomethyl)-1H-benzo[d]imidazole-6-carboxylate], in series [2], the AUC(0-inf) was 772 ng·h/mL, the exposure AUC(0-t) was 765 ng·h/mL, the highest concentration (Cmax) came out at 410 ng/mL and the Tmax was 0.41 h. The half-life in series [2] is 1.59 h.

For `O=C(O)c1ccc2nc(CN3CCC(c4ccccc4OCc4ccc(Cl)cc4F)CC3)n(C[C@@H]3CCO3)c2c1` [Crystal form II of the compound of formula I] [(S)-2-((4-(2-((4-Chloro-2-fluorobenzyl)oxy)phenyl)piperidin-1-yl)methyl)-1-(oxetan-2-aminomethyl)-1H-benzo[d]imidazole-6-carboxylic acid], in series [3], the “Purity, Onset” value is given as 99.73% and the “Purity, 80°C (1 day)” value is on record as 80.43%. Moreover, the “Compressibility (20 Mp)” value in series [4] was “Crystal form II, significant reduction in crystallinity”. In addition, in series [5], the “Grindability (mortar 5 min), purity” value came out at 99.7% and the “Grindability (mortar 5 min), solid form” value is on record as “transformed to amorphous”. Also, the “Crystallinity after tableting and grinding” value (from here on “Crystallinity”) in series [6] is “decreasing crystallinity in different degrees”. Moreover, the “Solid form after 80°C (1 day)” value in series [7] was “transformed to amorphous”.

As to `O=C(O)c1ccc2nc(CN3CCC(c4ccccc4OCc4ccc(Cl)cc4F)CC3)n(C[C@@H]3CCO3)c2c1` [Crystal form I of the compound of formula I] [(S)-2-((4-(2-((4-Chloro-2-fluorobenzyl)oxy)phenyl)piperidin-1-yl)methyl)-1-(oxetan-2-aminomethyl)-1H-benzo[d]imidazole-6-carboxylic acid], the “Purity, Onset” value in series [3] came out at 99.27%. For the same compound, the “Purity, 80°C (1 day)” value in series [3] is reported as 91.81%. Also, in series [4], the “Compressibility (20 Mp)” value is given as “Crystal form I, significant reduction in crystallinity”. Further, the “Hygroscopicity (80% RH)” value in series [1] (80% RH, 25°C, DVS) is recorded as 2.5%. Moreover, the “Hygroscopicity (80% RH), description in words” value in series [1] (80% RH, 25°C, DVS) is recorded as “highly hygroscopic”. The Desorption in series [1] (Target humidity 0.0 % P/P0) was determined as 0.013; in series [1] (Target humidity 10.0 % P/P0), 0.807; in series [1] (Target humidity 20.0 % P/P0), 1.307; in series [1] (Target humidity 30.0 % P/P0) it was 1.588; in series [1] (Target humidity 40.0 % P/P0) it was 1.816; in series [1] (Target humidity 50.0 % P/P0), 2.072. Also, the Desorption in series [1] (Target humidity 60.0 % P/P0) was 2.286; in series [1] (Target humidity 70.0 % P/P0), 2.441; in series [1] (Target humidity 80.0 % P/P0), 2.576; in series [1] (Target humidity 90.0 % P/P0), 2.685. Moreover, the Sorption in series [1] (Target humidity 0.0 % P/P0) is recorded as 0.019; in series [1] (Target humidity 10.0 % P/P0), 0.766; in series [1] (Target humidity 20.0 % P/P0), 1.271; in series [1] (Target humidity 30.0 % P/P0), 1.541; in series [1] (Target humidity 40.0 % P/P0), 1.754; in series [1] (Target humidity 50.0 % P/P0) it was 1.960. Further, the Sorption in series [1] (Target humidity 60.0 % P/P0) is 2.161; in series [1] (Target humidity 70.0 % P/P0) it was 2.344; in series [1] (Target humidity 80.0 % P/P0), 2.511; in series [1] (Target humidity 90.0 % P/P0), 2.685. The Hysteresis in series [1] (Target humidity 10.0 % P/P0) turned out to be 0.042; in series [1] (Target humidity 20.0 % P/P0), 0.035; in series [1] (Target humidity 30.0 % P/P0), 0.047; in series [1] (Target humidity 40.0 % P/P0), 0.062; in series [1] (Target humidity 50.0 % P/P0) it was 0.112; in series [1] (Target humidity 60.0 % P/P0) it was 0.125. Further, the Hysteresis in series [1] (Target humidity 70.0 % P/P0) stood at 0.097; in series [1] (Target humidity 80.0 % P/P0) it was 0.065. The “Grindability (mortar 5 min), purity” value in series [5] is listed as 99.25%. The “Grindability (mortar 5 min), solid form” value in series [5] is “transformed to amorphous”. For the same compound, the “Crystallinity” value in series [6] is “decreasing crystallinity in different degrees”.

Take `O=C(O)c1ccc2nc(CN3CCC(c4ccccc4OCc4ccc(Cl)cc4F)CC3)n(C[C@@H]3CCO3)c2c1` [Crystal form III of the compound of formula I] [(S)-2-((4-(2-((4-Chloro-2-fluorobenzyl)oxy)phenyl)piperidin-1-yl)methyl)-1-(oxetan-2-aminomethyl)-1H-benzo[d]imidazole-6-carboxylic acid]: in series [3], the “Purity, Onset” value amounted to 99.25% and the “Purity, 80°C (1 day)” value worked out at 83.43%. For the same compound, in series [4], the “Compressibility (20 Mp)” value is “Crystal form III, no significant reduction in crystallinity”. Also, in series [5], the “Grindability (mortar 5 min), purity” value was 98.65% and the “Grindability (mortar 5 min), solid form” value was “transformed to amorphous”. Besides, the “Crystallinity” value in series [6] was “decreasing crystallinity in different degrees”. Also, the “Solid form after 80°C (1 day)” value in series [7] was “transformed to amorphous”.

By AUC(0-inf) is commonly meant the area under the concentration-time curve extrapolated to infinity. Usually AUC(0-t) stands for the area under the concentration-time curve up to a stated or last time point. As usually defined, the Cmax is the highest concentration seen after dosing. Usually Tmax stands for the time at which the peak concentration occurs. A word on the half-life: it is the time needed for the level to fall by half in the phase considered.

These data come from patent EP4700023A1, “GLP-1R RECEPTOR AGONIST COMPOUND SALT AND CRYSTAL FORM THEREOF, PREPARATION METHOD THEREFOR AND USE THEREOF” (Chengdu Vincentage Pharma Co., Ltd., priority 2023, dated 2024).
